From patent publication US7534788B2, “Benzofuran and benzothiophene-2-carboxylic acid amide derivatives” (Hoffmann-La Roche Inc., priority 2007, dated 2009)

Each molecule was assayed against T1, histamine 3 receptor (H3R) (Homo sapiens, UniProt Q9Y5N1) (assay: Binding assay with 3H-(R)α-methylhistamine (competition binding)). Details: competition with 3H(R)α-methylhistamine (1 nM), membranes of the human HR3-CHO cell line; Ki calculated from IC50 by Cheng-Prusoff.
T1 construct: expressed in transfected cells; host or cells: CHO cells (HR3-CHO)
Description: Binding Assay with ^3H—(R)α-methylhistamine
Saturation binding experiments were performed using HR3-CHO membranes prepared as described in Takahashi, K, Tokita, S., Kotani, H. (2003) J. Pharmacol. Exp. Therapeutics 307, 213-218.
An appropriate amount of membrane (60 to 80 μg protein/well) was incubated with increasing concentrations of ^3H(R)α-Methylhistamine di-hydrochloride (0.10 to 10 nM). Non specific binding was determined using a 200 fold excess of cold (R)α-Methylhistamine dihydrobromide (500 nM final concentration). The incubation was carried out at room temperature (in deep-well plates shaking for three hours). The final volume in each well was 250 μl. The incubation was followed by rapid filtration on GF/B filters (pre-soaked with 100 μl of 0.5% PEI in Tris 50 mM shaking at 200 rpm for two hours). The filtration was made using a cell-harvester and the filter plates were then washed five times with ice cold washing buffer containing 0.5 M NaCl. After harvesting, the plates were dried at 55° C. for 60 min, then scintillation fluid (Microscint 40, 40 microl in each well) was added and the amount of radioactivity on the filter was determined in Packard top-counter after shaking the plates for two hours at 200 rpm at room temperature.
Binding Buffer: 50 mM Tris-HCl pH 7.4 and 5 mM MgCl2×6H2O pH 7.4. Washing Buffer: 50 mM Tris-HCl pH 7.4 and 5 mM MgCl2×6H2O and 0.5 M NaCl pH 7.4.
Indirect measurement of affinity of H3R inverse agonists: twelve increasing concentrations (ranging from 10 μM to 0.3 nM) of the selected compounds were always tested in competition binding experiments using membranes of the human HR3-CHO cell line. An appropriate amount of protein, e.g. approximately 500 cpm binding of RAMH at Kd, were incubated for 1 hour at room temperature in 250 μl final volume in 96-well plates in presence of ^3H(R)α-Methylhistamine (1 nM final concentration=Kd). Non-specific binding was determined using a 200 fold excess of cold (R)α-Methylhistamine dihydrobromide.
All compounds were tested at a single concentration in duplicate. […] The concentration at which 50% inhibition of the radioligand ^3H(R)α-methylhistamine is obtained (the IC50) is determined from the linear regression of a plot of the logarithm of the concentration versus percent inhibition measured for the different concentrations. Ki's were calculated from IC50 based on Cheng-Prusoff equation (Cheng, Y, Prusoff, W H (1973) Biochem Pharmacol 22, 3099-3108): Ki=IC50/[1+D/Kd] wherein D is the concentration of the radioligand and Kd is the binding constant for the radioligand binding to the receptor under the conditions used in the competition experiment.

T1 sequence (Q9Y5N1 whole entry): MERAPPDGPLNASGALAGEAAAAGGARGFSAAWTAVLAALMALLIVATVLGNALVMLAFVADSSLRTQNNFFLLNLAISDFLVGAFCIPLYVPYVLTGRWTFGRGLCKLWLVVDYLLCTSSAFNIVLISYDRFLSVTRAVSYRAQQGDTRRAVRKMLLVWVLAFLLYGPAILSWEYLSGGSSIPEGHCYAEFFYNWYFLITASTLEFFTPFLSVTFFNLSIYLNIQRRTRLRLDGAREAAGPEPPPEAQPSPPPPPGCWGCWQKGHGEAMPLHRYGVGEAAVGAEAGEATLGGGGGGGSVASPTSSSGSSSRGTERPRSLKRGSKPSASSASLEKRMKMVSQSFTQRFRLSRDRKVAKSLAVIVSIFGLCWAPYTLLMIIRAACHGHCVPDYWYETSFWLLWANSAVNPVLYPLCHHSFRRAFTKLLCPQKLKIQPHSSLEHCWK

Going from `CC(C)N1CCC(Oc2ccc3c(-c4ccccc4)c(C(=O)N4CCC(F)(F)CC4)oc3c2)CC1` [Example 17, (4,4-Difluoro-piperidin-1-yl)-[6-(1-isopropyl-piperidin-4-yloxy)-3-phenyl-benzofuran-2-yl]-methanone] to `O=C(c1oc2cc(OC3CCN(C4CCC4)CC3)ccc2c1-c1ccc(F)cc1)N1CCC(F)(F)CC1` [Example 65, [6-(1-Cyclobutyl-piperidin-4-yloxy)-3-(4-fluoro-phenyl)-benzofuran-2-yl]-(4,4-difluoro-piperidin-1-yl)-methanone], the Ki falls from 1.3 nM to 0.1 nM (13-fold). The second binds more tightly here.

`COC(=O)N1CCN(C(=O)c2oc3cc(OC4CCN(C(C)C)CC4)ccc3c2-c2ccc(F)cc2)CC1` [Example 45, 4-[3-(4-Fluoro-phenyl)-6-(1-isopropyl-piperidin-4-yloxy)-benzofuran-2-carbonyl]-piperazine-1-carboxylic acid methyl ester] and `CC(C)N1CCC(Oc2cc3oc(C(=O)N4CCS(=O)(=O)CC4)c(-c4ccc(F)cc4)c3cc2Cl)CC1` [Example 82, [5-Chloro-3-(4-fluoro-phenyl)-6-(1-isopropyl-piperidin-4-yloxy)-benzofuran-2-yl]-(1,1-dioxo-1λ6thiomorpholin-4-yl)-methanone] are the same in Ki: 0.4 nM for the first, 0.4 nM for the second.

Going from `CC(C)N1CCC(Oc2cc3cc(C(=O)N4CCS(=O)(=O)CC4)sc3cc2Cl)CC1` [Example 69, [6-Chloro-5-(1-isopropyl-piperidin-4-yloxy)-benzo[b]thiophen-2-yl]-(1,1-dioxo-1λ6thiomorpholin-4-yl)-methanone] to `COC(=O)N1CCN(C(=O)c2oc3cc(OC4CCN(C(C)C)CC4)c(Cl)cc3c2C(C)C)CC1` [Example 72, 4-[5-Chloro-3-isopropyl-6-(1-isopropyl-piperidin-4-yloxy)-benzofuran-2-carbonyl]-piperazine-1-carboxylic acid methyl ester], the Ki falls from 1.5 nM to 0.8 nM (1.9-fold).

First: COC(=O)N1CCN(C(=O)c2oc3cc(OC4CCN(C5CCC5)CC4)c(Cl)cc3c2C(C)C)CC1 [Example 76, 4-[5-Chloro-6-(1-cyclobutyl-piperidin-4-yloxy)-3-isopropyl-benzofuran-2-carbonyl]-piperazine-1-carboxylic acid methyl ester]
Second: COC(=O)N1CCN(C(=O)c2oc3cc(OC4CCN(C5CCC5)CC4)c(Cl)cc3c2C)CC1 [Example 94, 4-[5-Chloro-6-(1-cyclobutyl-piperidin-4-yloxy)-3-methyl-benzofuran-2-carbonyl]-piperazine-1-carboxylic acid methyl ester]
The Ki of the first is 4.6-fold lower: 0.5 nM for the first, 2.3 nM for the second. The first binds more tightly here.

`Cc1c(C(=O)N2CCC(F)(F)CC2)oc2cc(OC3CCN(C4CCC4)CC3)c(Cl)cc12` [Example 91, [5-Chloro-6-(1-cyclobutyl-piperidin-4-yloxy)-3-methyl-benzofuran-2-yl]-(4,4-difluoro-piperidin-1-yl)-methanone] gave a Ki of 2.6 nM.
